Source: patent US20160296529A1, “AMINOTRIAZOLOPYRIDINE FOR USE IN THE TREATMENT OF INFLAMMATION, AND PHARMACEUTICAL COMPOSITIONS THEREOF” (priority 2012, published 2016)
Where “and” joins values, the source holds several entries; their conditions need not be identical. Identical values can stand only once. Like-named read-outs stand apart in the source and are kept apart here.

Columns and labels:
[1] = molecular target: T1, Recombinant human JAK2 catalytic domain (Homo sapiens, UniProt O60674); test: JAK2 assay polyGT substrate; format: biochemical
T1 construct: amino acids 808-1132; catalog number PV4210; GST; purchased Invitrogen PV4210
Description: Recombinant human JAK2 catalytic domain (amino acids 808-1132; catalog number PV4210) was purchased from Invitrogen. 0.05 mU of JAK2 was incubated with 2.5 μg polyGT substrate (Sigma catalog number P0275) in kinase reaction buffer (10 mM MOPS pH 7.5, 0.5 mM EDTA, 0.01% Brij-35, 1 mM DTT, 15 mM MgAc, 1 μM non-radioactive ATP, 0.25 μCi ^33P-gamma-ATP (Perkin Elmer, catalog number NEG602K001MC) final concentrations) with or without 5 μL containing test compound or vehicle (DMSO, 1% final concentration), in a total volume of 25 μL, in a polypropylene 96-well plate (Greiner, V-bottom). After 90 min at 30° C., reactions were stopped by adding of 25 μL/well of 150 mM phosphoric acid. […] 40 μL/well of Microscint-20 was added, the top of the plates was sealed and readout was performed using the Topcount (Perkin Elmer). Kinase activity was calculated by subtracting counts per min (cpm) obtained in the presence of a positive control inhibitor (10 μM staurosporine) from cpm obtained in the presence of vehicle. The ability of a test compound to inhibit this activity was determined as:
Percentage inhibition=((cpm determined for sample with test compound present−cpm determined for sample with positive control inhibitor) divided by (cpm determined in the presence of vehicle−cpm determined for sample with positive control inhibitor))*100. […]

[2] = tested on: GM-CSF-induced STAT5 phosphorylation (JAK2-dependent pathway); test: Human whole blood assay (hWBA), GM-CSF stimulation, phospho-STAT5 on CD33+ cells; format: cell-based; conditions: 7 different donors
Description: A flow cytometry analysis was performed to establish JAK1 over JAK2 compound selectivity ex vivo using human whole blood. Therefore, blood is taken from human volunteers who gave informed consent. Blood is then equilibrated for 30 min at 37° C. under gentle rocking, then aliquoted in Eppendorf tubes. Compound is added at different concentrations and incubated at 37° C. for 30 min under gentle rocking and subsequently stimulated for 20 min at 37° C. under gentle rocking with interleukin 6 (IL-6) for JAK1-dependent pathway stimulation or GM-CSF for JAK2-dependent pathway stimulation. Phospho-STAT1 and phospho-STAT5 are then evaluated using FACS analysis. […]
Cells were then washed once with 1×PBS and analyzed on a FACSCanto II flow cytometer (BD Biosciences).
50,000 total events were counted and Phospho-STAT5 positive cells were measured after gating on CD33^+ cells. Data were analyzed using the FACSDiva software and correspond to the percentage of inhibition of GM-CSF stimulation calculated from the percentage of positive cells for phosphor-STAT5 on CD33^+ cells.
A flow cytometry analysis was performed to establish JAK1 over JAK2 compound selectivity ex vivo using human whole blood. […] Phospho-STAT1 (for IL-6- and IFNα-stimulated cells) and phospho-STAT5 (for IL-2- and GM-CSF-stimulated cells) levels are then evaluated using FACS analysis. […]

T1 sequence (O60674 808-1132): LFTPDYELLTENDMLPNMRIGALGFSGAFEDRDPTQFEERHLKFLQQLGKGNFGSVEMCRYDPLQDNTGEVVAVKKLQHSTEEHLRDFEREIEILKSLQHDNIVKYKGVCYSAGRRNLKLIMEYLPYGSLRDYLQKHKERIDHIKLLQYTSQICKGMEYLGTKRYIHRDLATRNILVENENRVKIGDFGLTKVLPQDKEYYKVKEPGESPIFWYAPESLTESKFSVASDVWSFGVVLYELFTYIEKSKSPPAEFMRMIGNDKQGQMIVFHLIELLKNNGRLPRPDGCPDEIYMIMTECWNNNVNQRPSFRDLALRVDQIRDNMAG

Q: `Nc1nc2cccc(-c3ccc(CN4CCS(=O)(=O)CC4)cc3)n2n1` [Formula I, 5-[4-(1,1-Dioxothiomorpholin-4-ylmethyl)-phenyl]-[1,2,4]triazolo[1,5-a]pyridin-2-ylamine] was tested. Which IC50 ([1]; average, read-out: IC50 (average)) did it give?
A: Its IC50 is 0.624 µM.

Q: And the IC50 ([1]; individual determinations, read-out: IC50)?
A: Its IC50 is 0.567 µM and 0.365 µM and 0.256 µM and 0.915 µM and 1.02 µM.

Q: What about the IC50 [2] of the same molecule?
A: Its IC50 is greater than 100 µM.
